Where two headings read alike, the source gives them in different places. Where a SMILES comes first, the peptide text is derived from it. The star is where a group is joined. X1 = CC(C)CCCC(C)C1CCC2C3CC=C4CC(OC(=O)CCC(=O)*)CCC4(C)C3CCC12C
Legend:
RSV A long virus strain = assay type: cell-based
Outline: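 HEp-2 cells (30000/well) infected with 100 PFU virus premixed 1 h with compound (8 concentrations, duplicate); after 2 h adsorption, cultured 1 day at 37 °C under 0.8% CMC overlay with compound. Plaques immunostained (RSV antibody, TrueBlue) and counted; IC50 and CC50 by non-linear fitting of % inhibition versus virus and cell controls.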

[1] = Cytotoxicity test in HEp-2 cells (CCK8 cell viability); assay type: cell-based; settings: human
Outline: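 HEp-2 cells seeded at 30,000/well, cultured overnight at 37° C./5% CO2, then exposed to diluted compound for 1 day in 0.5% DMSO. Viability read by CCK8, normalised to untreated-cell and medium-only controls; CC50 from four-parameter variable-slope fit.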

[2] = RSV A long virus strain, HEp-2 cells, plaque reduction, 1 day, read-out: IC50
[3] = HEp-2 cells, CCK8, 1 day, read-out: CC50

Row | Structure (SMILES) | IC50 (RSV A long virus strain) [µM] | CC50 at 1 day [1] [µM] | IC50 (RSV A long virus strain; [2]) [µM] | CC50 at 1 day [1, 3] [µM]
1 | CC[C@H](C)[C@H](NC(=O)[C@H](CO)NC(=O)[C@H](CCC(=O)O)NC(=O)[C@H](CC(N)=O)NC(=O)[C@@H](NC(=O)[C@H](CCCCN)NC(=O)[C@H](CO)NC(=O)[C@H](CO)NC(=O)[C@H](C)NC(=O)[C@H](CC(=O)O)NC(=O)[C@H](CC(N)=O)NC(=O)[C@@H](NC(=O)[C@H](CCC(=O)O)NC(=O)[C@H](CC(C)C)NC(=O)[C@H](CCCNC(=N)N)NC(=O)[C@H](Cc1ccccc1)NC(=O)[C@H](C)NC(=O)[C@H](CC(=O)O)NC(=O)[C@H](C)NC(C)=O)C(C)C)[C@@H](C)CC)C(=O)N[C@@H](CCC(=O)O)C(=O)N[C@@H](CCC(=O)O)C(=O)N[C@@H](CO)C(=O)N[C@@H](CC(C)C)C(=O)N[C@@H](CC(C)C)C(=O)N[C@@H](CO)C(=O)N[C@@H](CC(C)C)C(=O)N[C@@H](CCC(=O)O)C(=O)N[C@@H](CCCCN)C(=O)N[C@@H](CC(C)C)C(=O)N[C@@H](Cc1c[nH]cn1)C(=O)N[C@@H](CC(N)=O)C(=O)N[C@H](C(=O)N[C@@H](CC(N)=O)C(=O)N[C@@H](C)C(=O)N[C@H](C(=O)N[C@@H](C)C(N)=O)[C@@H](C)O)C(C)C [Compound 6] (Ac-ADAFRLEVNDASSKINESIEESLLSLEKLHNVNATA-NH2) | > 8 | > 8 |  | 
2 | CC[C@H](C)[C@H](NC(=O)[C@H](CCCCN)NC(=O)[C@H](CC(=O)O)NC(=O)[C@H](CO)NC(=O)[C@H](CCC(N)=O)NC(=O)[C@H](CCCCN)NC(=O)[C@H](CCCCN)NC(=O)[C@H](CC(C)C)NC(=O)[C@H](CO)NC(=O)[C@H](CCC(N)=O)NC(=O)[C@H](CCCCN)NC(=O)[C@H](CCC(=O)O)NC(=O)[C@H](CCC(=O)O)NC(=O)[C@H](CCC(=O)O)NC(=O)[C@@H](NC(=O)[C@H](CCCCN)NC(=O)[C@H](CCCCN)NC(=O)[C@H](CC(N)=O)NC(=O)[C@@H](NC(C)=O)C(C)C)[C@@H](C)CC)C(=O)N[C@@H](CCC(=O)O)C(=O)N[C@@H](CCC(=O)O)C(=O)N[C@@H](CO)C(=O)N[C@@H](CC(=O)O)C(=O)N[C@@H](CCC(=O)O)C(=O)N[C@@H](CC(N)=O)C(=O)N[C@@H](CCC(=O)O)C(=O)N[C@@H](C)C(=O)N[C@@H](C)C(=O)N[C@@H](C)C(=O)N[C@@H](CCCCN)C(=O)N[C@@H](CCCCNC(=O)CCC(=O)OC1CCC2(C)C(=CCC3C2CCC2(C)C(C(C)CCCC(C)C)CCC32)C1)C(N)=O (some centres unmarked) [Compound 36] (Ac-VNKKIEEEKQSLKKQSDKIEESDENEAAAKK(X1)-NH2) |  |  | 6.82 | > 8
3 | CC[C@H](C)[C@H](NC(=O)[C@H](Cc1ccccc1)NC(=O)[C@H](CCCCN)NC(=O)[C@H](CC(C)C)NC(=O)[C@H](CO)NC(=O)[C@H](CCC(N)=O)NC(=O)[C@H](CCC(=O)O)NC(=O)[C@@H](NC(=O)[C@H](CCCCN)NC(=O)[C@H](CCCCN)NC(=O)[C@H](CC(N)=O)NC(=O)[C@@H](NC(=O)[C@H](CCC(N)=O)NC(=O)[C@H](CCC(=O)O)NC(=O)[C@H](CC(C)C)NC(C)=O)C(C)C)[C@@H](C)CC)C(=O)N[C@@H](CCC(=O)O)C(=O)N[C@@H](CCCCN)C(=O)N[C@@H](CO)C(=O)N[C@@H](CC(=O)O)C(=O)N[C@@H](CCCCN)C(=O)N[C@@H](CC(C)C)C(=O)N[C@@H](CC(C)C)C(=O)N[C@@H](CCC(=O)O)C(=O)N[C@@H](CC(N)=O)C(=O)N[C@H](C(=O)N[C@@H](CC(N)=O)C(=O)N[C@@H](CCCCN)C(=O)NCC(=O)N[C@@H](CCCCN)C(=O)N[C@@H](CS)C(=O)N[C@@H](CCC(=O)O)C(=O)N[C@@H](C)C(=O)N[C@@H](C)C(=O)N[C@@H](C)C(=O)N[C@@H](CCCCN)C(=O)N[C@@H](CCCCNC(=O)CCC(=O)OC1CCC2(C)C(=CCC3C2CCC2(C)C(C(C)CCCC(C)C)CCC32)C1)C(N)=O)C(C)C (some centres unmarked) [Positive polypeptide 5, reference compound] (Ac-LEQVNKKIEQSLKFIEKSDKLLENVNKGKCEAAAKK(X1)-NH2) |  |  | > 0.3 | 3.72
4 | CC[C@H](C)[C@H](NC(C)=O)C(=O)N[C@@H](CCC(=O)O)C(=O)N[C@@H](CCC(=O)O)C(=O)N[C@H](C(=O)N[C@@H](CC(N)=O)C(=O)N[C@@H](CCCCN)C(=O)N[C@@H](CCCCN)C(=O)N[C@H](C(=O)N[C@@H](CCC(=O)O)C(=O)N[C@@H](CCC(=O)O)C(=O)N[C@@H](CO)C(=O)N[C@@H](CC(C)C)C(=O)N[C@@H](CCCCN)C(=O)N[C@@H](CCCCN)C(=O)N[C@H](C(=O)N[C@@H](CCC(=O)O)C(=O)N[C@@H](CCC(=O)O)C(=O)N[C@@H](CO)C(=O)N[C@@H](CC(=O)O)C(=O)N[C@@H](CCCCN)C(=O)N[C@@H](CCCCN)C(=O)N[C@@H](CC(C)C)C(=O)N[C@@H](CCC(=O)O)C(=O)N[C@@H](CCC(=O)O)C(=O)N[C@H](C(=O)N[C@@H](CC(N)=O)C(=O)N[C@@H](CCCCN)C(=O)N[C@@H](CCCCN)C(=O)N[C@@H](CCCCN)C(=O)N[C@@H](CCC(=O)O)C(=O)N[C@@H](C)C(=O)N[C@@H](C)C(=O)N[C@@H](C)C(=O)N[C@@H](CCCCN)C(=O)N[C@@H](CCCCNC(=O)CCC(=O)OC1CCC2(C)C(=CCC3C2CCC2(C)C(C(C)CCCC(C)C)CCC32)C1)C(N)=O)C(C)C)[C@@H](C)CC)[C@@H](C)CC)C(C)C (some centres unmarked) [Positive polypeptide 3, reference compound] (Ac-IEEVNKKIEESLKKIEESDKKLEEVNKKKEAAAKK(X1)-NH2) |  |  | > 0.3 | > 10
5 | CC[C@H](C)[C@H](NC(=O)[C@H](CCCCN)NC(=O)[C@H](CCCCN)NC(=O)[C@H](CC(C)C)NC(=O)[C@H](CO)NC(=O)[C@H](CCC(=O)O)NC(=O)[C@H](CCC(=O)O)NC(=O)[C@@H](NC(=O)[C@H](CCCCN)NC(=O)[C@H](CCCCN)NC(=O)[C@H](CC(N)=O)NC(=O)[C@@H](NC(=O)[C@H](CCC(=O)O)NC(=O)[C@H](CCC(=O)O)NC(=O)[C@@H](NC(=O)[C@H](CCCCN)NC(=O)[C@H](CCCCN)NC(=O)[C@H](CCCCN)NC(=O)[C@H](CC(=O)O)NC(=O)[C@H](Cc1ccccc1)NC(=O)[C@H](CCC(=O)O)NC(=O)[C@H](CC(=O)O)NC(C)=O)[C@@H](C)CC)C(C)C)[C@@H](C)CC)C(=O)N[C@@H](CCC(=O)O)C(=O)N[C@@H](CCC(=O)O)C(=O)N[C@@H](CO)C(=O)N[C@@H](CC(=O)O)C(=O)N[C@@H](CCCCN)C(=O)N[C@@H](CCCCN)C(=O)N[C@@H](CC(C)C)C(=O)N[C@@H](CCC(=O)O)C(=O)N[C@@H](CCC(=O)O)C(=O)N[C@H](C(N)=O)C(C)C [Compound 3] (Ac-DEFDKKKIEEVNKKIEESLKKIEESDKKLEEV-NH2) |  |  | 4.43 | > 8
6 | CC[C@H](C)[C@H](NC(=O)[C@H](CCCCN)NC(C)=O)C(=O)N[C@@H](CCC(=O)O)C(=O)N[C@@H](CCC(=O)O)C(=O)N[C@H](C(=O)N[C@@H](CC(N)=O)C(=O)N[C@@H](CCCCN)C(=O)N[C@@H](CCCCN)C(=O)N[C@H](C(=O)N[C@@H](CCC(=O)O)C(=O)N[C@@H](CCC(=O)O)C(=O)N[C@@H](CO)C(=O)N[C@@H](CC(C)C)C(=O)N[C@@H](CCCCN)C(=O)N[C@@H](CCCCN)C(=O)N[C@H](C(=O)N[C@@H](CCC(=O)O)C(=O)N[C@@H](CCC(=O)O)C(=O)N[C@@H](CO)C(=O)N[C@@H](CC(=O)O)C(=O)N[C@@H](CCCCN)C(=O)N[C@@H](CCCCN)C(=O)N[C@@H](CC(C)C)C(=O)N[C@@H](CCC(=O)O)C(=O)N[C@@H](CCC(=O)O)C(=O)N[C@H](C(=O)N[C@@H](CC(N)=O)C(=O)N[C@@H](CCCCN)C(=O)N[C@@H](CCCCN)C(=O)N[C@@H](CC(C)C)C(=O)N[C@@H](CCC(=O)O)C(=O)N[C@@H](C)C(=O)N[C@@H](C)C(=O)N[C@@H](C)C(=O)N[C@@H](CCCCN)C(=O)N[C@@H](CCCCNC(=O)CCC(=O)OC1CCC2(C)C(=CCC3C2CCC2(C)C(C(C)CCCC(C)C)CCC32)C1)C(N)=O)C(C)C)[C@@H](C)CC)[C@@H](C)CC)C(C)C (some centres unmarked) [Compound 10] (Ac-KIEEVNKKIEESLKKIEESDKKLEEVNKKLEAAAKK(X1)-NH2) |  |  | 0.0181 | 1.4
7 | CC[C@H](C)[C@H](NC(=O)[C@H](Cc1ccccc1)NC(=O)[C@H](C)NC(=O)[C@H](CC(C)C)NC(=O)[C@H](CO)NC(=O)[C@H](CCC(N)=O)NC(=O)[C@H](CC(N)=O)NC(=O)[C@@H](NC(=O)[C@H](CCCCN)NC(=O)[C@H](CCC(=O)O)NC(=O)[C@H](CC(N)=O)NC(=O)[C@@H](NC(=O)[C@H](CCC(N)=O)NC(=O)[C@H](CCC(=O)O)NC(=O)[C@H](CC(=O)O)NC(=O)[C@H](CO)NC(C)=O)C(C)C)[C@@H](C)CC)C(=O)N[C@@H](CCCNC(=N)N)C(=O)N[C@@H](CCCNC(=N)N)C(=O)N[C@H](C(=O)N[C@@H](CCCNC(=N)N)C(=O)N[C@@H](CCCCN)C(=O)N[C@@H](CC(C)C)C(=O)N[C@@H](CC(C)C)C(=O)N[C@@H](Cc1c[nH]cn1)C(=O)N[C@@H](CC(N)=O)C(=O)N[C@@H](CCC(=O)O)C(=O)N[C@@H](C)C(=O)N[C@@H](C)C(=O)N[C@@H](C)C(=O)N[C@@H](CCCCN)C(=O)N[C@@H](CCCCNC(=O)CCC(=O)OC1CCC2(C)C(=CCC3C2CCC2(C)C(C(C)CCCC(C)C)CCC32)C1)C(N)=O)[C@@H](C)CC (some centres unmarked) [Compound 31] (Ac-SDEQVNEKINQSLAFIRRIRKLLHNEAAAKK(X1)-NH2) |  |  | 2.22 | > 8

— patent US20260250325A1, “Antiviral Polypeptide Membrane Fusion Inhibitor, and Preparation Method and Application Thereof” (priority 2025, published 2026)
